Where two headings read alike, the source gives them in different places.
Assays:
[1] = system: non-insulin-dependent diabetes induced in rats by Streptozotocin; experiment: Antidiabetic activity by the oral route in the nOSTZ rat model of non-insulin-dependent diabetes; format: in vivo; conditions: 96 h, nOSTZ diabetic rats; for change in vivo at 20 mg/kg: 20 mg/kg/4d; for change in vivo at 200 mg/kg: 200 mg/kg/4d
Protocol: To determine an antidiabetic activity by the oral route on an experimental model of non-insulin-dependent diabetes induced in rats by Streptozotocin.
The non-insulin-dependent diabetes model is obtained in rats by a neonatal injection (on the day of birth) of Streptozotocin.
The diabetic rats used are 8 weeks old.
The animals are kept, from the day of their birth to the day of the experiment, in an animal house at a regulated temperature of 21 to 22° C., and subjected to a fixed cycle of light (from 7.00 h to 19.00 h) and of darkness (from 19.00 h to 7.00 h). Their diet consisted of a maintenance diet; water and food were provided “ad libitum”, with the exception of the 2 hours of fasting preceding the tests where food is withdrawn.
On the day of the experiment, the rats are treated orally with the test product, and then 90′ later, are anaesthetized with Nembutal. 2 hours after the administration of the product, a 500-μl blood sample is collected from the tail.
The blood is collected over Heparin. All the tubes are placed on ice at the time the samples are collected. These are then centrifuged for 10 minutes at 3000 revolutions/minute to separate the organized elements as rapidly as possible.
The plasma obtained is distributed into 2 aliquots: one for the assay of glycaemia and lactatamia; these assays are carried out immediately the other for the assay of insulinaemia—is stored in the freezer at −20° C. up to the day of the assay They are determined by the glucose oxydase and lactate oxydase technique (Eppendorf Ebio 6666) The plasma insulin is assayed by a radio-immunological method

Row | melting point [°C] | Structure (SMILES) | change in vivo at 20 mg/kg ([1]; read-out: % Glycaemia) [%] | change in vivo at 200 mg/kg ([1]; read-out: % Glycaemia) [%] | change in vivo at 20 mg/kg ([1]; read-out: % Insulinaemia) [%] | change in vivo at 200 mg/kg ([1]; read-out: % Insulinaemia) [%]
1 | 101 to 103 | COCCc1ccc(OCCC2SC(=O)NC2=O)cc1 (centres unmarked) [Compound 20] | -10 | -14 |  | 
2 | 121 to 123 | O=C1NC(=O)C(CCCOc2ccc(F)cc2)S1 (centres unmarked) [Compound 3, 5-[3-(4-fluorophenoxy)propyl]-2,4-thiazolidinedione] | -17 | -17 | 1 | -37
3 |  | Cc1ccc(C)c(OCCC2SC(=O)NC2=O)c1 (centres unmarked) [Compound 18] | -8 | -9 | -4 | -17
4 | 116 to 118 | O=C1NC(=O)C(CCOc2ccc(Cl)cc2)S1 (centres unmarked) [Compound 4] | -3 | -17 | -35 | -33
5 | 119 to 121 | Cc1ccc(OCCC2SC(=O)NC2=O)cc1 (centres unmarked) [Compound 8] | -3 | -9 | -30 | -26
6 | 234 to 236 | O=C1NC(=O)C(CCOc2ccc(C(=O)O)cc2)S1 (centres unmarked) [Compound 21] | -1 | -9 |  | 
7 | 131 to 133 | O=C1NC(=O)C(C(O)COc2ccc(F)cc2)S1 (centres unmarked) [Compound 16, 5-{[1-hydroxy-2-(4-fluorophenoxy)]ethyl}-2,4-thiazolidinedione] | -6 | -22 | -12 | 0
8 | 68 to 70 | O=C1NC(=O)C(CCCCCCOc2ccc(Cl)cc2)S1 (centres unmarked) [Compound 9] | 10 | -16 | -15 | -30
9 | 98 to 100 | O=C1NC(=O)C(CCCCCOc2ccc(F)cc2)S1 (centres unmarked) [Compound 10] | -1 | -9 | -12 | -48
10 | 145 | O=C1NC(=O)C(CC2COc3ccccc3O2)S1 (centres unmarked) [Compound 7] | 1 | -10 | 6 | -47
11 |  | N#Cc1ccc(OCCC2SC(=O)NC2=O)cc1 (centres unmarked) [Compound 6, 5-[2-(4-cyanophenoxy)ethyl]-2,4-thiazolidinedione] | -20 | -26 | 0 | -49
12 | 87 | O=C1NC(=O)C(CCOc2cccc(F)c2)S1 (centres unmarked) [Compound 13] | -14 | -2 |  | 
13 | 138 | O=C1NC(=O)C(CCOc2ccccc2F)S1 (centres unmarked) [Compound 14] | -4 | -7 | -23 | -51
14 | 104 to 106 | O=C1NC(=O)C(CCOc2ccc(Br)cc2)S1 (centres unmarked) [Compound 5] | -10 | -23 | -9 | -62
15 | 134 to 136 | Cc1ccc(C)c(OCCC2SC(=O)NC2=O)c1 (centres unmarked) (hydrate or solvate) [Compound 18] |  |  |  | 
16 | 133 | O=C1NC(=O)C(CCOc2ccc3ccccc3c2)S1 (centres unmarked) [Compound 15] | -14 | -22 | -9 | -12
17 |  | O=C1NC(=O)C(CCOc2ccccc2)S1 (centres unmarked) [Compound 1, 5-(2-phenoxyethyl)-2,4-thiazolidinedione] | -15 | -26 |  | 
18 | 185 to 187 | O=C1NC(=O)C(CCOc2cccc3ccccc23)S1 (centres unmarked) [Compound 11] | -12 | -21 | -31 | -23
19 | 94 to 96 | O=C1NC(=O)C(CCOc2ccc(F)cc2)S1 (centres unmarked) [Compound 2, 5-[2-(4-fluorophenoxy)ethyl]-2,4-thiazolidinedione] | -2 | -19 | -1 | -27
20 | 121 | O=C1NC(=O)C(C(COc2ccc(F)cc2)c2ccccc2)S1 (centres unmarked) [Compound 12] | -6 | -6 | -35 | -56
21 | 96 to 98 | O=C1NC(=O)C(CC(O)COc2ccc(F)cc2)S1 (centres unmarked) [Compound 17, 5-{[2-hydroxy-3-(4-fluorophenoxy)]propyl}-2,4-thiazolidinedione] | -20 | -7 | 4 | -5
22 | 106 to 108 | CC(COc1ccccc1)C1SC(=O)NC1=O (centres unmarked) [Compound 19, 5-[1-methyl-2-phenoxyethyl]-2,4-thiazolidinedione] | -6 | -20 | 2 | -10
